From patent publication US9611314B2, “Functional peptide analogs of PEDF” (The Penn State Research Foundation, priority 2013, dated 2017)
Where no end group is shown, it is not given here.

B1: Pigment epithelium derived factor (protein)
chain: QNVPSSSEGSPVPDSTGEPVEEEDPFFKVPVNKLAAAVSNFGYDLYRLRSSASPTGNVLLSPLSVATALSALSLGAEHRTESVIHRALYYDLITNPDIHSTYKELLASVTAPEKNLKSASRIVFERKLRVKSSFVAPLEKSYGTRPRILTGNPRVDLQEINNWVQAQMKGKIARSTREMPSALSILLLGVAYFKGQWVTKFDSRKTTLQDFHLDEDRTVRVPMMSDPKAILRYGLDSDLNCKIAQLPLTGSMSIIFFLPLTVTQNLTMIEESLTSEFIHDIDRELKTIQAVLTVPKLKLSFEGELTKSLQDMKLQSLFESPDFSKITGKPVKLTQVEHRAAFEWNEEGAGSSPSPGLQPVRLTFPLDYHLNQPFLFVLRDTDTGALLFIGRILDPSST

How the values were obtained:
[1] = Peptide bioavailability in mouse vitreous after 5 μg eye drop (MALDI TOF); assay type: in vivo, C57BL/6 mice; conditions: mouse, in vivo
Procedure: Before the longitudinal efficacy studies were carried out in vivo, the bioavailability of the five analogs was examined in comparison to the parent compound P78 and its active 29-mer derivative, SpxA1.
Bioavailability of each peptide was determined in vitreous samples obtained at various time points after eye drops were given. Vitreous samples were harvested from enucleated eyes and immediately analyzed by mass spectrometry. Spectral intensities were compared to spectra of known concentrations of each analog to calculate amounts of peptides reaching the vitreous. The eye drops administered to normal mouse eyes contained 5 μg of the test compound. Bioavailability was studied at three time points: 1, 4, 6 hr using four animals/time point (n=8 eyes). The vitreous was rapidly dissected from each group after the drops were given and immediately analyzed by MALDI TOF.

[2] = Peptide bioavailability in primate eyes, vitreous humor by mass spectrometry; assay type: in vivo, primate (Vervets); conditions: 100 μg topical
From the text: From the studies using the DR mouse model, two active, structurally diverse peptides 81-5 and 81-13 were selected to test their availability in the primate eye when given topically. There are substantial differences between the eyes of rodents, primates, and humans. The most obvious is size of the aqueous and vitreous fluid compartments. Fluid flow forward from the ciliary body in primates/humans is countercurrent to drug movement to the back of the eye and may influence drug concentrations in the vitreous. In this study, it was examined whether the selected compounds had access to the retina when given topically to primate eyes as they do in rodents. Peptide doses used were scaled up by 8-20 fold as an estimate to account for differences in eye volume between rodents and primates.
Adult males and females were equally distributed into 3 treatment groups (Table 3) and randomized by weight criteria. Animals were fasted overnight then sedated with ketamine (8 mg/kg, I.M) and xylazine (1.6 mg/kg, I.M) prior to all procedures. Two monkeys received a topical dose of 40 μg (40 μl) of 81-5 OU (both eyes) and underwent vitreocentesis at ˜1 hr (Group 1) after dosing. […]
Samples were analyzed by mass spectrometry and concentrations calculated using a standard curve that plotted intensity vs known concentration. […]

transcription factors = assay: Procarta multiplex transcription factor DNA binding activity; assay type: cell-based; conditions: 50 nM peptides, 48 hr, human RPE cells
Procedure: Activation of transcription factors by P78, spx or 81-5 was measured in human RPE cells. The Affymetrix Procarta Multiplex Transcription factor panel (Affymetrix, Inc. Santa Clara, Calif.) was used to obtain quantitative measurement of DNA binding activity of 44 transcription factors. Cells were seeded at 1×10^5 cells/ml in 6 well plates. Cells were treated with 50 nM peptides in 2% FBS medium for 48 hr, peptides were supplied twice after 24 hr. Cells were harvested using Buffer A working reagent (250 μl well)(1 ml Buffer A: 10 μl DTT, 10 μl protease inhibitor, 10 μl phosphatase inhibitor I, 10 μl phosphatase inhibitor II) and centrifuged at 14,000×g for 3 min at 4° C. Supernatant containing cytoplasmic proteins was collected and protein concentration estimated using the BioRad DC protein assay. To the nuclear pellets, 30 μl/well buffer B (1 ml Buffer B: 10 μl DTT, 10 μl protease inhibitor, 10 μl phosphatase inhibitor I) was added and the samples incubated for 2 hours at 200 rpm. Supernatant containing nuclear proteins was collected by centrifugation at 14,000×g for 5 min at 4° C. and protein concentration measured using Bio-Rad DC protein assay. […] The beads were washed again, resuspended with reading buffer, and incubated for 5 min at room temperature. DNA binding activity of the transcription factors was measured using the Bio-Plex 200 system (bio-Rad) and the xMAP technology.

Molecule | bioavailability profile in rodents [1] | peptide concentration in the vitreous, 1 versus 2 hr [2] | regulation of transcription factors (transcription factors)
SALSLGAAERTESIIHR [Peptide 81-13, SALSLGAAERTESIIHR] | comparable bioavailability profiles with 81-5 | not significantly different between the 1 and 2 hr treatment | 
B1 |  |  | regulates transcription factors
